In patent US5312831A, “Urethanes and ureas that induce cytokine production” (American Cyanamid Company, priority 1993, dated 1994):

Assays:
Assay type in all cases: in vivo, mouse
[1] = test system: IL-6; experiment: Serum IL-6 production in mice after single s.c. injection (7TD1 bioassay); settings: serum 4 h post injection
Description: Description of Biological Assays Interleukin 6(IL-6) assay for structure function analysis--Test compounds are dissolved in water and administered subcutaneously in 0.2 ml to deliver a dose of 0.1-10 mg/kg. The less soluble compounds are first dissolved in 100% ethanol and then brought to the appropriate concentration in water. Four hours post injection, the mice are bled and the serum is retrieved. The IL-6 dependent cell line 7TDl is used to assay serial dilutions of sera for IL-6 content. 7TDl cells (1×10^4) are placed in microtiter wells and incubated at 37° C. for 72 hours with standard recombinant mouse IL-6 or with dilutions of serum to be tested. Over the last 6 hours, the cells are pulsed with ^3 H-Tdr (μci). Cells are then harvested and the degree of proliferation determined by the uptake of ^3 H-Tdr as measured by liquid scintillation spectrometry. The concentration of IL-6 in serum is calculated from standard curves utilizing recombinant IL-6 from R&D Systems Inc. and are reported in units of IL-6 activity as defined by the manufacturer.

[2] = test system: CSF; experiment: Serum colony stimulating factor (CSF) assay in mice; settings: serum 4 hours after injection
Description: Colony forming assays Granulocyte-Macrophage (CFU-GM)--Mice are treated with 150 mg/kg of 5-Fu and treatment with test compound begins 24 hrs. later. On consecutive days, mice are killed by cervical dislocation and the femurs removed under sterile conditions. Femurs are flushed with 1 ml of ice cold medium (Iscove's supplemented with 20% FCS, 1% penicillin-streptomycin, 1% glutamine and 5×10^-5 M 2-mercaptoethanol). Bone marrow cells (5×10^5) are then plated in 12×75 mm tissue culture plates in 3 ml of warm ararose (3%) in Iscove's medium with 100 Units/ml of recombinant mouse GM-CSF purchased from Genzyme (Boston, Mass.). Plates are incubated for 7 days at 37° C. in 5% CO2. After 7 days, colonies of 50 cells or greater are enumerated under a dissecting microscope.
Bone marrow cells are prepared as described above for the CFU-GM assay. The cells are then incubated in soft agar with an 0.3% final concentration of serum taken from mice 4 hours after injection with test compounds. After 7 days of incubation at 37° C., the number of colony forming (CFU) cells per 10^5 plated bone marrow cells is determined by counting colonies of more than 50 cells under a dissecting microscope. The data are reported as CFU/10^5 bone marrow cells.

[3] = test system: neutrophils; experiment: Neutrophil recovery in 5-FU treated mice; settings: mouse, in vivo
Description: Circulating Neutrophil Assay--Mice are treated with 5-FU (150 mg/kg) and beginning 24 hrs. later, treated daily with the test compound. Mice are bled daily by retroorbital puncture in heparinized capillary tubes. Circulating WBC counts are determined by Coulter counter. Blood smears are stained with Wright-Geimsa solution and the percentage circulating neutrophils determined by differential counting under a microscope.
5-Fluorouracil (5-FU) Induced Neutropenia In Mice--Mice are treated ip with 150 mg/kg of the chemotherapy agent 5-FU which induces a severe loss of neutrophils in the peripheral blood 5-6 days later. Twenty-four hrs. after the dose, treatment with the test compounds is initiated. The effect of the test compounds on recovery of neutrophil progenitor cells in the bone marrow is determined by the CFU-GM assay. The recovery of circulating neutrophils is followed by differential staining of the peripheral blood.
*Data from 10 mice/group on day 7 post treatment with 150 mg/kg of 5FU.
Beginning 24 hrs. after 5FU dose, mice were treated daily with test
compound at concentrations indicated. Neutrophil count for normal mice (n
**Mice treated with 5FU and vehicle only.

[4] = test system: neutrophils; experiment: Neutrophil recovery in 5-FU treated mice; settings: day 7 post 5FU, n = 6 mice/group, 0 dose 54 ± 22

SMILES	IL-6 ([1]; 0.1 mg/kg s.c.) [U/ml]	IL-6 ([1]; 1.0 mg/kg s.c.) [U/ml]	IL-6 ([1]; 10.0 mg/kg s.c.) [U/ml]	CSF production, CFU/100,000 Bone Marrow Cells ([2]; 1.0 mg/kg)	CSF production, CFU/100,000 Bone Marrow Cells ([2]; 10.0 mg/kg)	CSF production, CFU/100,000 Bone Marrow Cells ([2]; 0.1 mg/kg)	neutrophil recovery in 5-FU treated mice (in words) [3]	Neutrophils/cu. mm. ([4]; 1 μg/kg daily)	Neutrophils/cu. mm. ([4]; 10 μg/kg daily)	Neutrophils/cu. mm. ([4]; 100 μg/kg daily)
CCCCOc1ccc(CC(=O)NC(C(=O)O)C(C)OC(=O)N[C@@H](CCC[C@@H](N)C(=O)O)C(=O)N[C@H](C)C(=O)O)cc1 (stereo partly drawn) [Example 34, N-[N^2-[[2-[[(4-Butoxyphenyl)acetyl]amino]-2-carboxy-1-methylethoxy]carbonyl]-(R)-6-carboxy-L-lysyl]-D-Alanine]	3610 ± 347	5063 ± 302	–	–	–	–	–	–	–	–
CCCCCCC(=O)NC(CNC(=O)N[C@@H](CCCC(N)C(=O)OC)C(=O)N[C@H](C)C(=O)OC)C(=O)OCc1ccccc1 (stereo partly shown) [Example 80]	–	1712 ± 168	3624 ± 611	91 ± 3 CFU/100,000 Bone Marrow Cells	121 ± 9 CFU/100,000 Bone Marrow Cells	–	–	–	–	–
CCCCCCC(=O)NC(CNC(=O)N[C@@H](CCCC(N)C(=O)O)C(=O)N[C@H](C)C(=O)O)C(=O)O (stereo partly shown) [Example 84]	1963 ± 97	3865 ± 688	2512 ± 209	118 ± 15 CFU/100,000 Bone Marrow Cells	131 ± 10 CFU/100,000 Bone Marrow Cells	129 ± 14 CFU/100,000 Bone Marrow Cells	induce neutrophil recovery in 5-FU treated mice	427 ± 211 /cu. mm.	570 ± 224 /cu. mm.	2194 ± 629 /cu. mm.
CCCCCCC(=O)N[C@H](C(=O)O)[C@@H](C)OC(=O)N[C@@H](CCC[C@@H](N)C(=O)O)C(=O)N[C@H](C)C(=O)O (relative stereo) [Example 31, R-(R*,S*)]-N-(R)-6-carboxy-N^2-[[2-carboxy-1-methyl-2-[(1-oxoheptyl)amino]ethoxy]carbonyl]-L-lysyl]-D-Alanine]	294 ± 24	–	–	–	–	–	–	–	–	–
CCCCCCC(=O)NC(CNC(=O)N[C@@H](CCCC(NC(=O)OC(C)(C)C)C(=O)OC)C(=O)N[C@H](C)C(=O)OC)C(=O)O (stereo partly drawn) [Example 81, N-N^2-[[[2-carboxy-2-[(1-oxoheptyl)amino]ethyl]amino]carbonyl]-N^6-[(1,1-dimethylethoxy)carbonyl]-6-(methoxycarbonyl)-L-lysyl-D-alanine methyl ester]	–	56 ± 19	199 ± 23	69 ± 14 CFU/100,000 Bone Marrow Cells	101 ± 7 CFU/100,000 Bone Marrow Cells	–	–	–	–	–
CCCCCC1CCC(C(=O)NC(C(=O)O)C(C)OC(=O)N[C@@H](CCC[C@@H](N)C(=O)O)C(=O)N[C@H](C)C(=O)O)CC1 (stereo partly drawn) [Example 33, [(R)-6-Carboxy-N^2-[[2-carboxy-1-methyl-2-[[(4-pentylcyclohexyl)carbonyl]amino]ethoxy]carbonyl]-L-lysyl]-D-Alanine]	1651 ± 100	3767 ± 457	–	–	–	–	–	–	–	–
CCCCCCC(=O)NC(CNC(=O)N[C@@H](CCCC(N)C(=O)OC)C(=O)N[C@H](C)C(=O)OC)C(=O)O (stereo partly shown) [Example 82]	–	2181 ± 92	3188 ± 345	108 ± 11 CFU/100,000 Bone Marrow Cells	115 ± 3 CFU/100,000 Bone Marrow Cells	–	–	–	–	–
CCCCCCC(=O)NC(CNC(=O)N[C@@H](CCCC(NC(=O)OC(C)(C)C)C(=O)O)C(=O)N[C@H](C)C(=O)O)C(=O)O (stereo partly shown) [Example 83]	–	332 ± 38	1818 ± 243	204 ± 9 CFU/100,000 Bone Marrow Cells	123 ± 22 CFU/100,000 Bone Marrow Cells	–	–	–	–	–
CCCCCCC(=O)N[C@@H](C(=O)O)[C@H](C)OC(=O)N[C@@H](CCC[C@@H](N)C(=O)O)C(=O)N[C@H](C)C(=O)O [Example 29, [S-(R*,S*)]-N-[(R)-6-carboxy-N^2-[[2-carboxy-1-methyl-2-[(1-oxoheptyl)amino]ethoxy]carbonyl]-L-lysyl]-D-Alanine]	0	203	537	101 ± 46 CFU/100,000 Bone Marrow Cells	–	0 ± 0 CFU/100,000 Bone Marrow Cells	–	–	–	–
CCCCCCC(=O)N[C@H](C(=O)O)[C@H](C)OC(=O)N[C@@H](CCC[C@@H](N)C(=O)O)C(=O)N[C@H](C)C(=O)O [Example 30, [S-(R*,R*)]-N-(R)-6-carboxy-N^2-[[2-Carboxy-1-methyl-2-[(1-oxoheptyl)amino]ethoxy]carbonyl]-L-lysyl]-D-Alanine]	328 ± 107	–	–	–	–	–	–	–	–	–
